Literature values, collected in patent publication US20190192601A1, “EXTRACTS OF CYCLANTHERA PEDATA AND FORMULATIONS AND USES THEREOF” (priority 2014, published 2019).

Legend:
[1] = in vivo

| Molecule | plasma lipid levels [1] | lower risk of heart disease (patients; supplementation with 30 IU to 100 IU) | progression of coronary artery disease (patients; supplementation with 100 IU) |
| --- | --- | --- | --- |
| O=C(CCCN1CCN(c2ccc(F)cc2)CC1)NC1c2ccccc2CSc2ccccc21 (stereo not drawn) [Monatepil] | found to reduce |  |  |
| vitamin E |  | 41% | reduced progression |
